Measured values published in US3954814A, “Alkadienylcyclopropanecarboxylates” (Sumitomo Chemical Company, Limited, priority 1971, dated 1976).
≈ marks a conversion by molar mass, not a printed value.

What was measured:
Format in all cases: in vivo
rice stem borer larvae = experiment: micro dropping (topical) test on hibernating rice stem borer larvae (Experimental Example 3); conditions: topical in acetone, head and tail of larvae, 3 days
From the text: The present compounds (1), (4), (8), (10), (14), (15), (22), (32), (36), (38), (41), (44), (48), (50), (51), (52), (53), (61), (66), (68), (72), (73), (80), (81), (90) and (93) and chrysanthemic acid esters corresponding thereto were individually dissolved in acetone to prepare insecticides of various concentrations. Using a micro dropping means, each of the insecticides was dropped to the head and tail of hibernating rice stem borer larvae.

house flies = experiment: Campbell's turn table oil spray test on house fly adults (Experimental Example 1); conditions: Musca domestica, 24 h, oil spray 5 ml, 10 min exposure, mortality after 1 day, read-out: LC50 (50 percent lethal concentration)
Protocol: The present compounds (1), (4), (8), (10), (14), (15), (20), (22), (32), (36), (38), (41), (44), (48), (50), (51), (52), (53), (61), (66), (68), (72), (73), (78), (80), (81), (90), (93) and (96), and chrysanthemic acid esters and pyrethric acid esters corresponding thereto were individually formulated by use of deodorized kerosene into oil sprays of various test concentrations.
Using the Campbell's turn table [disclosed in "Soap & Sanitary Chemicals," Vol. 14, No. 6, page 119 (1938)], 5 ml. of each of the oil sprays was sprayed. When 20 seconds had elapsed after the spraying, the shutter was opened, and adults of house flies (a group of about 100 flies) were exposed to the settling mist for 10 minutes and then transferred to an observation cage.
The above operation was repeated several times to measure the LC50 (50 percent lethal concentration) of each compound.

[1] = tested on: Northern house mosquitoes; experiment: knock-down test of oil sprays on Northern house mosquito adults in (70 cm)^3 glass chamber (Experimental Example 2); conditions: concentration of oil spray 0.1%
Protocol: The present compounds (1), (6), (20), (22), (23), (25), (27), (29), (30), (31), (39), (42), (43), (45), (49), (53), (56), (62), (64), (78), (81), (83), (85), (87), (88) and (89), and chrysanthemic acid esters and pyrethric acid esters corresponding thereto were individually formulated by use of deodorized kerosene into oil sprays of various test concentrations.
About 20 adults of Northern house mosquitoes were liberated in a (70 cm)^3 glass chamber, and 0.7 ml. of each of the oil sprays was sprayed into the chamber under a pressure of 1.5 kg/cm^2 by use of a glass atomizer. Subsequently, the number of knocked-down mosquitoes was counted to calculate the KT50 (50 percent knock down time) of each compound.

| Compound | LD50 (50 percent lethal dose) (rice stem borer larvae) | LC50 (house flies) [µg/mL] | KT50 (50 percent knock down time) [1] [s] |
| --- | --- | --- | --- |
| C=CCc1cc(C)c(COC(=O)C2C(C=C(C)C)C2(C)C)c(C)c1 (stereo not shown) [2,6-Dimethyl-4-allylbenzyl chrysanthemate, reference compound] | 0.35 γ/larva | 650 (≈ 1990 µM) |  |
| CC(C)=CC1C(C(=O)OCc2cccc(Cc3ccccc3)c2)C1(C)C (stereo not shown) [3-Benzylbenzyl chrysanthemate, reference compound] | 1.20 γ/larva | 270 (≈ 775 µM) |  |
| CC(C)=CC1C(C(=O)OCC=C(Cl)Cc2ccccc2)C1(C)C (stereo not shown) [3-Chloro-4-phenyl-2-butene-1-yl chrysanthemate, reference compound] | 0.68 γ/larva | 360 (≈ 1080 µM) |  |
| CC(C)=CC1C(C(=O)OCc2cccc(Oc3ccccc3)c2)C1(C)C (stereo not shown) [3-Phenoxybenzyl chrysanthemate, reference compound] | 0.72 γ/larva | 170 (≈ 485 µM) |  |
| CC(C)=CC1C(C(=O)OCc2cc3c(o2)CCCC3)C1(C)C (stereo not shown) [4,5-Tetramethylenefurfuryl chrysanthemate, reference compound] | 0.75 γ/larva | 160 (≈ 529 µM) |  |
| C#CCc1ccc(COC(=O)C2C(C=C(C)C)C2(C)C)cc1 (stereo not shown) [4-Propargylbenzyl chrysanthemate, reference compound] | 0.99 γ/larva | 850 (≈ 2870 µM) |  |
| CC(C)=CC1C(C(=O)OCc2ccc(Oc3ccccc3)o2)C1(C)C (stereo not shown) [5-Phenoxyfurfuryl chrysanthemate, reference compound] | 0.12 γ/larva | 85 (≈ 250 µM) |  |
| C=CC(C)=CC1C(C(=O)OCc2cccc(Cc3ccccc3)c2)C1(C)C (stereo not shown) [Present compound (4), 3-Benzylbenzyl 2',2'-dimethyl-3'-(2"-methyl-1",3"-butadienyl)-cyclopropanecarboxylate] | 0.71 γ/larva | 110 (≈ 305 µM) |  |
| C#CCc1ccc(COC(=O)C2C(C=C(C)C=C)C2(C)C)cc1 (stereo not shown) [Present compound (8), 4-Propargylbenzyl 2',2'-dimethyl-3'-(2"-methyl-1",3"-butadienyl)-cyclopropanecarboxylate] | 0.37 γ/larva | 500 (≈ 1620 µM) |  |
| C=CC(C)=CC1C(C(=O)OCc2cc3c(o2)CCCC3)C1(C)C (stereo not shown) [Present compound (10), 4,5-Tetramethylenefurfuryl 2',2'-dimethyl-3'-(2"-methyl-1",3"-butadienyl)-cyclopropanecarboxylate] | 0.32 γ/larva | 120 (≈ 382 µM) |  |
| C=CC(C)=CC1C(C(=O)OCc2ccc(Oc3ccccc3)o2)C1(C)C (stereo not shown) [Present compound (14), 5-Phenoxyfurfuryl 2',2'-dimethyl-3'-(2"-methyl-1",3"-butadienyl)-cyclopropanecarboxylate] | 0.040 γ/larva | 47 (≈ 133 µM) |  |
| C=CC(C)=CC1C(C(=O)OCc2cccc(Oc3ccccc3)c2)C1(C)C (stereo not shown) [Present compound (15), 3-Phenoxybenzyl 2',2'-dimethyl-3'-(2"-methyl-1",3"-butadienyl)-cyclopropanecarboxylate] | 0.29 γ/larva | 68 (≈ 188 µM) |  |
| C#CCc1ccc(C(C#C)OC(=O)C2C(C=C(C)C=C)C2(C)C)o1 (stereo not shown) [Present compound (20), 5-Propargylα-ethynylfurfuryl 2',2'-dimethyl-3'-(2"-methyl-1",3"-butadienyl)-cyclopropanecarboxylate] |  | 90 (≈ 279 µM) | 102 |
| C=CC(C)=CC1C(C(=O)OCC=C(Cl)Cc2ccccc2)C1(C)C (stereo not shown) [Present compound (32), 3-Chloro-4-phenyl-2-butene-1-yl 2',2'-dimethyl-3'-(2"-methyl-1",3"-butadienyl)-cyclopropanecarboxylate] | 0.52 γ/larva | 190 (≈ 551 µM) |  |
| C=CCc1cc(C)c(COC(=O)C2C(C=C(C)C=C)C2(C)C)c(C)c1 (stereo not shown) [Present compound (36), 2,6-Dimethyl-4-allylbenzyl 2',2'-dimethyl-3'-(2"-methyl-1",3"-butadienyl)-cyclopropanecarboxylate] | 0.28 γ/larva | 390 (≈ 1150 µM) |  |
| CC=CC(C)=CC1C(C(=O)OCc2coc(Cc3ccccc3)c2)C1(C)C (stereo not shown) [Present compound (38), 5-Benzyl-3-furylmethyl 2',2'-dimethyl-3'-(2"-methyl-1",3"-pentadienyl)-cyclopropanecarboxylate] | 0.102 γ/larva | 66 (≈ 181 µM) |  |
| CC=CC(C)=CC1C(C(=O)OCc2cccc(Oc3ccccc3)c2)C1(C)C (stereo not shown) [Present compound (41), 3-Phenoxybenzyl 2',2'-dimethyl-3'-(2"-methyl-1",3"-pentadienyl)-cyclopropanecarboxylate] | 0.48 γ/larva | 100 (≈ 266 µM) |  |
| CC(C)=CC(C)=CC1C(C(=O)OCc2coc(Cc3ccccc3)c2)C1(C)C (stereo not shown) [Present compound (44), 5-Benzyl-3-furylmethyl 2',2'-dimethyl-3'-(2",4"-dimethyl-1",3"-pentadienyl)-cyclopropanecarboxylate] | 0.145 γ/larva | 63 (≈ 166 µM) |  |
| CC(C)=CC(C)=CC1C(C(=O)OCc2cccc(Oc3ccccc3)c2)C1(C)C (stereo not shown) [Present compound (48), 3-Phenoxybenzyl 2',2'-dimethyl-3'-(2",4"-dimethyl-1",3"-pentadienyl)-cyclopropanecarboxylate] | 0.56 γ/larva | 140 (≈ 358 µM) |  |
| C=CC=CC1C(C(=O)OCc2coc(Cc3ccccc3)c2)C1(C)C (stereo not shown) [Present compound (50), 5-Benzyl-3-furylmethyl 2',2'-dimethyl-3'-(1",3"-butadienyl)-cyclopropanecarboxylate] | 0.057 γ/larva | 44 (≈ 131 µM) |  |
| CC=CC=CC1C(C(=O)OCc2coc(Cc3ccccc3)c2)C1(C)C (stereo not shown) [Present compound (51), 5-Benzyl-3-furylmethyl 2',2'-dimethyl-3'-(1",3"-pentadienyl)-cyclopropanecarboxylate] | 0.065 γ/larva | 56 (≈ 160 µM) |  |
| CC(C)=CC=CC1C(C(=O)OCc2coc(Cc3ccccc3)c2)C1(C)C (stereo not shown) [Present compound (52), 5-Benzyl-3-furylmethyl 2',2'-dimethyl-3'-(4"-methyl-1",3"-pentadienyl)-cyclopropanecarboxylate] | 0.100 γ/larva | 52 (≈ 143 µM) |  |
| C=CC=CC1C(C(=O)OCc2cccc(Cc3ccccc3)c2)C1(C)C (stereo not shown) [Present compound (61), 3-Benzylbenzyl 2',2'-dimethyl-3"-(1",3"-butadienyl)-cyclopropanecarboxylate] | 0.50 γ/larva | 90 (≈ 260 µM) |  |
| C#CCc1ccc(COC(=O)C2C(C=CC=C)C2(C)C)cc1 (stereo not shown) [Present compound (66), 4-Propargylbenzyl 2',2'-dimethyl-3'-(1",3"-butadienyl)-cyclopropanecarboxylate] | 0.31 γ/larva | 350 (≈ 1190 µM) |  |
| C=CC=CC1C(C(=O)OCc2cc3c(o2)CCCC3)C1(C)C (stereo not shown) [Present compound (68), 4,5-Tetramethylenefurfuryl 2',2'-dimethyl-3'-(1",3"-butadienyl)-cyclopropanecarboxylate] | 0.26 γ/larva | 110 (≈ 366 µM) |  |
| C=CC=CC1C(C(=O)OCc2ccc(Oc3ccccc3)o2)C1(C)C (stereo not shown) [Present compound (72), 5-Phenoxyfurfuryl 2',2'-dimethyl-3'-(1",3"-butadienyl)-cyclopropanecarboxylate] | 0.034 γ/larva | 41 (≈ 121 µM) |  |
| C=CC=CC1C(C(=O)OCc2cccc(Oc3ccccc3)c2)C1(C)C (stereo not shown) [Present compound (73), 3-Phenoxybenzyl 2',2'-dimethyl-3'-(1",3"-butadienyl)-cyclopropanecarboxylate] | 0.26 γ/larva | 60 (≈ 172 µM) |  |
| C#CCc1ccc(C(C#C)OC(=O)C2C(C=CC=C)C2(C)C)o1 (stereo not drawn) [Present compound (78), 5-Propargyl-α-ethynylfurfuryl 2',2'-dimethyl-3'-(1",3"-butadienyl)-cyclopropanecarboxylate] |  | 82 (≈ 266 µM) | 93 |
| C=CC=CC1C(C(=O)OC(C#N)c2cccc(Oc3ccccc3)c2)C1(C)C (stereo not drawn) [Present compound (80), 3-Phenoxy-α-cyanobenzyl 2',2'-dimethyl-3'-(1",3"-butadienyl)-cyclopropanecarboxylate] | 0.005 γ/larva | 35 (≈ 93.7 µM) |  |
